Measurements as given in patent US9718840B2, “Condensed 5-oxazolidinone derivative” (SUMITOMO DAINIPPON PHARMA CO., LTD., priority 2014, dated 2017).
Where two headings read alike, the source gives them in different places.

Key:
[1] = tested on: human plasma; experiment: Ester metabolism stability test: stability in human plasma; format: in vitro ADME; details: 37° C., 20 minutes
Description: 198 μL of human plasma (manufactured by Cosmo Bio Inc.) was added to 2 μL of a DMSO solution containing a 100 μmol/L test substance, and the mixture was incubated at 37° C. for 20 minutes. After the incubation, the metabolic reaction was terminated by the addition of 600 μL of acetonitrile.

[2] = Ester metabolism stability test: stability in human liver; format: in vitro ADME; details: 37° C., 20 minutes, with NADPH
Description: A reaction solution containing 5 μL of human liver S9 (manufactured by Sekisui XenoTech, LLC, 20 mg/mL) mixed with 20 μL of 500 mmol/L Kpi (pH 7.4), 40 μL of a 5 mmol/L aqueous solution of NADPH (manufactured by Oriental Yeast Co., Ltd.), and 133 μL of ion-exchange water was added to 2 μL of a DMSO solution containing a 100 μmol/L test substance, and the mixture was incubated at 37° C. for 20 minutes. After the incubation, the metabolic reaction was terminated by the addition of 600 μL of acetonitrile.

[3] = Ester metabolism stability test: metabolite identification by LC-MS
Text: The metabolites were identified using LC (LC-Nexera X2 manufactured by Shimadzu Corp.)-MS (API4000 manufactured by AB Sciex Pte Ltd.).

[4] = target: Human FXIa (Homo sapiens, UniProt P03951); experiment: In vitro activated factor XI (FXIa) inhibition test; format: biochemical; parameters: purchased Enzyme Research Laboratories
Chain of Human FXIa (P03951 388-625 limits assumed): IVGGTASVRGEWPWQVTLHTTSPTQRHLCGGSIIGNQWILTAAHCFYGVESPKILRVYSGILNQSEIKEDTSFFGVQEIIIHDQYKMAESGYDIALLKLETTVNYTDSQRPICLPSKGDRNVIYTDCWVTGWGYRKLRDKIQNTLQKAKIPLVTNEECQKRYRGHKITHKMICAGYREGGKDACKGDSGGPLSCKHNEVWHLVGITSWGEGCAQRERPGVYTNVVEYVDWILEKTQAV
Chain of Human FXIa (P03951 19-387 partner limits assumed): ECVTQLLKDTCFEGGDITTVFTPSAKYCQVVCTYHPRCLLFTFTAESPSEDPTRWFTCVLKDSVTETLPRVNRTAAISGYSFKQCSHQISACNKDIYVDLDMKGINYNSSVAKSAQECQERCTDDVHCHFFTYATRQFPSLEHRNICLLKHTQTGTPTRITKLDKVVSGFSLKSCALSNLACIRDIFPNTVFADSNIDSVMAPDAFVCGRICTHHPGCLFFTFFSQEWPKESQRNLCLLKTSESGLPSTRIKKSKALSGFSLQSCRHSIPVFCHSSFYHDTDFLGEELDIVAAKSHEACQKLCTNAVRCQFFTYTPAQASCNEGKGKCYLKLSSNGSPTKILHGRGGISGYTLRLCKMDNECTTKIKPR

[5] = tested on: Rabbit venous thrombus models; experiment: In vivo antithrombotic effect evaluation test using rabbit (arteriovenous shunt); details: prompt i.v. + continuous i.v.
Description: Rabbit venous thrombus models were prepared by a modification of the report of Wong et al. (Wong P C. et al., J. Pharmacol. Exp. Ther. 292: 351-357 (2000)). Male rabbits (JW, 2 to 4 kg) were anesthetized by the inhalation of isoflurane (ISOFLU®, manufactured by DS Pharma Animal Health Co., Ltd.) (introduced anesthesia: 4%, continuous anesthesia: 1.5 to 2.5%). A tracheostomy tube was inserted to each rabbit, which was then ventilated using a respirator. For the intravenous administration of a test drug and blood collection, catheters were inserted to the right femoral vein and the right femoral artery, respectively. An arteriovenous shunt filled with saline was inserted to the carotid artery and the jugular vein. The arteriovenous shunt was prepared by connecting Atom extension tubes (4Fr) having lengths of 15 cm and 13 cm to the artery side and the vein side, respectively, of a polyethylene tube (length: 60 cm, outside diameter: 11.1 mm, inside diameter: 7.9 mm). Also, 4-0 silk thread having a length of 5 cm was indwelled in the arteriovenous shunt. Blood was sent for 30 minutes from the carotid artery to the jugular vein via the arteriovenous shunt. The shunt was removed, and the weight of the silk thread covered with thrombus was measured. The weight of the silk thread measured before the experiment was subtracted from the measured weight, and the obtained value was used as a wet thrombus weight. One hour before the open of the arteriovenous shunt, the test drug or a vehicle was promptly intravenously administered (0.67 mL/kg) and then continuously intravenously administered (1 mL/kg/hr). The continuous injection was continued throughout the experiment. Further, an existing anticoagulant dabigatran (antithrombin drug) and rivaroxaban (FXa inhibitor) were tested as control drugs.
In order to measure aPTT of blood samples as an index for the intrinsic coagulation pathway, blood was collected before administration and immediately before cessation of blood flow, and plasma was prepared using 3.2% sodium citrate. After incubation at 37° C. for 6 minutes, an STA reagent Cephascreen (for aPTT assay; manufactured by Roche Diagnostics K.K.) was added in an amount equal thereto, and the mixture was further incubated for 4 minutes. STA calcium chloride (manufactured by Roche Diagnostics K.K.) was added in an amount equal thereto, and the time required for coagulation was measured.
In order to measure prothrombin time (PT) of blood samples as an index for the extrinsic coagulation pathway, blood was collected before administration and immediately before cessation of blood flow, and plasma was prepared using 3.2% sodium citrate. After incubation at 37° C. for 10 minutes, Neoplastin Plus (for PT assay; manufactured by Roche Diagnostics K.K.) was added in a double amount, and the time required for coagulation was measured.

[6] = tested on: Rabbit nail bleeding models; experiment: Bleeding time evaluation test using rabbit nail bleeding model; format: in vivo; details: for Bleeding time: Experiment 1 (maximum 30 minutes), rabbit; for Bleeding time (fold-increase): Experiment 1, ratio to vehicle group average
Description: Rabbit nail bleeding models were prepared by a modification of the report of Wong et al. (Wong P C. et al., J. Thromb. Haemost. 7: 1313-1320 (2009)). Male rabbits (JW, 1.5 to 3.5 kg) were anesthetized by the inhalation of isoflurane (ISOFLU®, manufactured by DS Pharma Animal Health Co., Ltd.) (introduced anesthesia: 4%, continuous anesthesia: 2 to 3%).
For the intravenous administration of a test drug or a vehicle, an indwelling needle was inserted to the auricular vein, and the test drug or the vehicle was promptly intravenously administered (0.67 mL/kg) and then continuously intravenously administered (1 mL/kg/hr). One hour after the start of administration, three posterior toenails were cut and dipped in saline heated to approximately 37° C., and the bleeding time was measured. The bleeding time was defined as a time from the cutting to the arrest of bleeding, and an average value from the three nails was used. The measurement time was 30 minutes at the maximum for experiment 1 and 60 minutes at the maximum for experiment 2. In each experiment, if bleeding for 30 minutes or 60 minutes or longer was confirmed, the bleeding time was regarded as 30 minutes or 60 minutes.

[7] = metabolites identified using LC-MS
[8] = substrate S-2366, 37° C., 10 minutes, read-out: FXIa Inhibition activity IC50
[9] = dose 0.01 + 0.015 mg/kg + mg/kg/h
[10] = dose 0.03 + 0.045 mg/kg + mg/kg/h
[11] = dose 0.1 + 0.15 mg/kg + mg/kg/h
[12] = dose 0.03 + 0.045 mg/kg + mg/kg/h i.v.
[13] = dose 0.1 + 0.15 mg/kg + mg/kg/h i.v.
[14] = dose 0.3 + 0.45 mg/kg + mg/kg/h i.v.

CC1(C)OC(=O)c2cc3cc(NC(=O)[C@@H]4[C@H](C5CCCCC5)CCN4C(=O)[C@H]4CC[C@H]([C@H](N)CF)CC4)ccc3n21.Cl [Example 1, (2S,3S)-1-({trans-4-[(1S)-1-Amino-2-fluoroethyl]cyclohexyl}carbonyl)-N-(3,3-dimethyl-1-oxo-1H-[1,3]oxazolo[3,4-a]indol-7-yl)-3-cyclohexylpyrrolidine-2-carboxamide hydrochloride]
Residual rate (%) Human plasma [1]: 29%
Residual rate (%) Human liver S9 [2]: 87%
Metabolite formed (conversion by metabolism) [3, 7]: converted to the compound of Reference Example 2-6

NC[C@H]1CC[C@H](C(=O)N2CC[C@@H](c3ccccc3)[C@H]2C(=O)Nc2ccc3[nH]c(C(=O)O)cc3c2)CC1 [compound 40]
IC50 [4, 8]: 9 nM

Cl.NC[C@H]1CC[C@H](C(=O)N2CC[C@@H](C3CCCCC3)[C@H]2C(=O)Nc2ccc3c(c2)cc2n3C(CF)(CF)OC2=O)CC1 [Example 18]
Residual rate (%) Human plasma [1]: 15%
Residual rate (%) Human liver S9 [2]: 78%
Metabolite formed (conversion by metabolism) ([3]; human, 20 min, 1 μmol/L): converted to the compound of Example 23

COc1ccc([C@H]2CCN(C(=O)[C@H]3CC[C@H]([C@H](N)CF)CC3)[C@@H]2C(=O)Nc2ccc3[nH]c(C(=O)O)cc3c2)cc1 [compound 43]
IC50 [4, 8]: 76 nM

N[C@H](CF)[C@H]1CC[C@H](C(=O)N2CC[C@H](c3ccc(F)cc3)[C@H]2C(=O)Nc2ccc3[nH]c(C(=O)O)cc3c2)CC1 [compound 44]
IC50 [4, 8]: 33 nM

NC(CF)[C@H]1CC[C@H](C(=O)N2CC[C@@H](c3ccc(F)cc3)[C@H]2C(=O)Nc2ccc3[nH]c(C(=O)O)cc3c2)CC1 (some centres unmarked) [compound 38]
IC50 [4, 8]: 30 nM

Cl.N[C@H](CF)[C@H]1CC[C@H](C(=O)N2CC[C@@H](C3CCCCC3)[C@H]2C(=O)Nc2ccc3c(c2)cc2n3C(CF)(CF)OC2=O)CC1 [Example 6, (3S)-1-({trans-4-[(1S)-1-amino-2-fluoroethyl]cyclohexyl}carbonyl)-N-[3,3-bis(fluoromethyl)-1-oxo-1H-[1,3]oxazolo[3,4-a]indol-7-yl]-3-cyclohexyl-L-prolinamide hydrochloride]
Residual rate (%) Human plasma [1]: 7.9%
Residual rate (%) Human liver S9 [2]: 67%
Metabolite formed (conversion by metabolism) [3, 7]: converted to the compound of Reference Example 2-6

N[C@H](CF)[C@H]1CC[C@H](C(=O)N2CC[C@@H](N3CCCCC3)[C@H]2C(=O)Nc2ccc3[nH]c(C(=O)O)cc3c2)CC1 [Example 25, 5-[(2S,3R)-1-({trans-4-[(1S)-1-Amino-2-fluoroethyl]cyclohexyl}carbonyl)-3-(piperidin-1-yl)pyrrolidine-2-carboxamide]-1H-indole-2-carboxylic acid 2-trifluoroacetate]
IC50 [4, 8]: 19 nM

N[C@H](CF)[C@H]1CC[C@H](C(=O)N2CC[C@@H](C3CCCCC3)[C@H]2C(=O)Nc2ccc3[nH]c(C(=O)O)c(Cl)c3c2)CC1 [compound 37]
IC50 [4]: 18 nM

CC1(C)OC(=O)c2cc3cc(NC(=O)[C@@H]4[C@H](c5ccccc5)CCN4C(=O)[C@H]4CC[C@H]([C@H](N)CF)CC4)ccc3n21.Cl [Example 19, (3S)-1-({trans-4-[(1S)-1-amino-2-fluoroethyl]cyclohexyl}carbonyl)-N-(3,3-dimethyl-1-oxo-1H-[1,3]oxazolo[3,4-a]indol-7-yl)-3-phenyl-L-prolinamide]
Residual rate (%) Human plasma [1]: 15%
Residual rate (%) Human liver S9 [2]: 93%
Metabolite formed (conversion by metabolism) [3, 7]: Reference Example 19-1

CCCCCCOC(=O)NC(=N)c1ccc(NCc2nc3cc(C(=O)N(CCC(=O)OCC)c4ccccn4)ccc3n2C)cc1 [Dabigatran etexilate]
PT (ratio) [5, 9]: 1.07 ± 0.02 ratio
Thrombus weight [5, 9]: 62 ± 18 mg
aPTT (ratio) [5, 9]: 1.28 ± 0.07 ratio
PT (ratio) [5, 10]: 1.23 ± 0.10 ratio
Thrombus weight [5, 10]: 32 ± 9 mg
aPTT (ratio) [5, 10]: 1.58 ± 0.15 ratio
PT (ratio) [5, 11]: 2.29 ± 0.29 ratio
Thrombus weight [5, 11]: 12 ± 4 mg
aPTT (ratio) [5, 11]: 2.34 ± 0.12 ratio
Bleeding time [6, 12]: 1276 ± 353 s
Bleeding time [6, 13]: 1800 ± 0 s
Bleeding time [6, 14]: 1800 ± 0 s
Bleeding time (fold-increase) [6, 12]: 2.7 ± 0.7 fold-increase
Bleeding time (fold-increase) [6, 13]: 3.8 ± 0.0 fold-increase
Bleeding time (fold-increase) [6, 14]: 3.8 ± 0.0 fold-increase

Cc1c(C(=O)O)[nH]c2ccc(NC(=O)[C@@H]3[C@H](C4CCCCC4)CCN3C(=O)[C@H]3CC[C@H]([C@H](N)CF)CC3)cc12 [compound 39]
IC50 [4, 8]: 145 nM

NC[C@H]1CC[C@H](C(=O)N2CC[C@@H](C3CCCCC3)[C@H]2C(=O)Nc2ccc3[nH]c(C(=O)O)cc3c2)CC1 [Example 23]
IC50 [4, 8]: 3 nM

N[C@H](CF)[C@H]1CC[C@H](C(=O)N2CC[C@H](c3ccccc3)[C@H]2C(=O)Nc2ccc3[nH]c(C(=O)O)c(Cl)c3c2)CC1 [compound 45]
IC50 [4, 8]: 60 nM

CCc1c(C(=O)O)[nH]c2ccc(NC(=O)[C@@H]3[C@H](C4CCCCC4)CCN3C(=O)[C@H]3CC[C@H]([C@H](N)CF)CC3)cc12 [Reference Example 42]
IC50 [4, 8]: 91 nM

NC(CF)[C@H]1CC[C@H](C(=O)N2CC[C@@H](C3CCCCC3)[C@H]2C(=O)Nc2ccc3[nH]c(C(=O)O)c(F)c3c2)CC1 (some centres unmarked) [Reference Example 36]
IC50 [4, 8]: 45 nM
